Test results taken from ChEMBL document CHEMBL1268898, “Metallocene catalyzed synthesis of fungistatic vicinal aminoalcohols under solvent free conditions” (2010).

Legend:
[1] = test system: Colletotrichum gloeosporioides; assay: Fungistatic activity against Colletotrichum gloeosporioides assessed as inhibition of fungal growth at 100 mg/L relative to control; format: functional; settings: read-out: GI
Botrytis cinerea = assay: Fungistatic activity against Botrytis cinerea assessed as inhibition of fungal growth at 100 mg/L relative to control; format: functional; settings: read-out: GI

Row | Structure (SMILES) | inhibition of growth at 100 µg/mL [1] [%] | inhibition of growth at 100 µg/mL (Botrytis cinerea) [%]
1 | Cc1ccc(NC(CO)c2ccccc2)cc1 (stereo unspecified) | 40 | 63
2 | O=[N+]([O-])c1ccc(NC(CO)c2ccccc2)cc1 (stereo unspecified) | 55 | 69
3 | Cc1ccc(NCC(C)(C)O)cc1 | < 30 | 62
4 | Cc1ccc(NCC(O)COc2ccccc2)cc1 (stereo unspecified) | 72 | 87
5 | Cc1ccc(N(CC(O)COc2ccccc2)CC(O)COc2ccccc2)cc1 (stereo unspecified) | < 30 | 53
6 | CN(C)S(=O)(=O)N(SC(F)(Cl)Cl)c1ccccc1 [DICHLOFLUANID] | – | > 95
